From patent US9790180B2, “Piperidine derivatives as HDAC1/2 inhibitors” (Acetylon Pharmaceuticals, Inc., priority 2014, dated 2017)

Experiments:
[1] = test system: human peripheral blood lymphocytes (HPBL); assay: Micronucleus formation assay; type: cell-based; conditions: In vitro tox
Method: Genotoxicity was further evaluated by micronucleus formation assay in human peripheral blood lymphocytes (HPBL). HPBL were obtained from healthy donors and exposed to Compound 003 at […] for 4 hours with or without S9 activation. The cells were washed with PBS and incubated in complete medium with 6 μg/ml cytocholasin B for 24 hours. The cells were then lysed, fixed, and mounted on microscope slides. The number of mononucleated, binucleated, and micronucleated cells was counted under blinded conditions.

[2] = Rat cassette pharmacokinetics; type: in vivo; conditions: male, SD, plasma
Method: Male SD rats were fasted overnight. Compounds of the invention were dissolved in dimethyl acetamide at 10 times the final concentration, then Solutol HS 15 (BASF) was added to a final concentration of 10%. Finally 80% saline was added and vortexed to achieve a clear solution. For the IV dosing three animals were injected via the foot dorsal vein with 1 mg/kg compound. For the PO dosing 5 mg/kg of compound was delivered by oral gavage. Blood was collected via the tail vein into K2EDTA tubes at 5 minutes, 15 minutes, 30 minutes, 1 hour, 2 hours, 4 hours, 8 hours and 24 hours after dosing. The blood was centrifuged at 2000 g for 5 minutes at 4° C. to obtain plasma. The plasma was extracted with acetonitrile and the level of compound was analyzed by LC/MS/MS. The level of compound in plasma was calculated from a standard curve in rat plasma. The IV clearance and area under the curve were calculated using WinNonLin software. The dose adjusted area under the curve for the IV and oral dosing were used to calculate the oral bioavailability.

Gata2 mRNA = Gata2 mRNA induction in erythroid progenitors; type: cell-based, human; conditions: primary erythroid progenitors, 3 days differentiation, relative to beta-actin mRNA (FIG. 7)
Text: Human bone marrow derived CD34+ cells were expanded for 7 days as described by Sankaran et al., Science, vol. 322(5909), pp. 1839-42 (2008). Cells were then differentiated, in the presence of the indicated concentration of Compound 005, Compound A (another known HDAC1/2 inhibitor), or vehicle control (DMSO), for 3 days in media supporting erythropoiesis (Hu et al., “Isolation and functional characterization of human erythroblasts at distinct stages: implications for understanding of normal and disordered erythropoiesis in vivo”, Blood, vol. 121(16), pp. 3246-53 ([…])). Gata2 mRNA was determined using quantitative real time PCR and expressed relative to the level beta-actin mRNA control.

[3] = rat cassette dosing, 5 mg/kg PO

In the case of CN1CCN(C(=O)N2CCC(Nc3ccc(C(=O)Nc4cc(-c5cccs5)ccc4N)cc3)CC2)CC1 [Compound 005], the MN [1] is reported as “Neg”, the bioavailability ([2]; 5 mg/kg, rat, oral AUC to IV AUC, dose adjusted) is reported as 79% and the AUC [2, 3] is reported as 9160 ng·h/mL. For the same molecule, the Cmax [2, 3] was 569 ng/mL, the half-life ([2]; rat cassette dosing, 5 mg/kg PO, read-out: PO T½ (converted)) was greater than 24 h and the CL renal ([2]; rat cassette dosing, IV 1 mg/kg, read-out: IV Clr. (converted)) was 6.33 mL/min/kg. The “induction of Gata2 mRNA” value (Gata2 mRNA) was “equivalent dose and time-dependent induction”.
